Data as given in article PMC9329436, “Optimization of the 4-anilinoquin(az)oline scaffold as epidermal growth factor receptor (EGFR) inhibitors for chordoma utilizing a toxicology profiling assay platform” (Scientific Reports, 2022).
Like-named read-outs stand apart in the source and are kept apart here.

Tests used:
Format in all cases: biochemical
[1] = biological target: T1, 320 wild-type protein kinases (Homo sapiens, UniProt Q14164); settings: IKK-epsilon, singlicate
T1 sequence (Q14164 1-716): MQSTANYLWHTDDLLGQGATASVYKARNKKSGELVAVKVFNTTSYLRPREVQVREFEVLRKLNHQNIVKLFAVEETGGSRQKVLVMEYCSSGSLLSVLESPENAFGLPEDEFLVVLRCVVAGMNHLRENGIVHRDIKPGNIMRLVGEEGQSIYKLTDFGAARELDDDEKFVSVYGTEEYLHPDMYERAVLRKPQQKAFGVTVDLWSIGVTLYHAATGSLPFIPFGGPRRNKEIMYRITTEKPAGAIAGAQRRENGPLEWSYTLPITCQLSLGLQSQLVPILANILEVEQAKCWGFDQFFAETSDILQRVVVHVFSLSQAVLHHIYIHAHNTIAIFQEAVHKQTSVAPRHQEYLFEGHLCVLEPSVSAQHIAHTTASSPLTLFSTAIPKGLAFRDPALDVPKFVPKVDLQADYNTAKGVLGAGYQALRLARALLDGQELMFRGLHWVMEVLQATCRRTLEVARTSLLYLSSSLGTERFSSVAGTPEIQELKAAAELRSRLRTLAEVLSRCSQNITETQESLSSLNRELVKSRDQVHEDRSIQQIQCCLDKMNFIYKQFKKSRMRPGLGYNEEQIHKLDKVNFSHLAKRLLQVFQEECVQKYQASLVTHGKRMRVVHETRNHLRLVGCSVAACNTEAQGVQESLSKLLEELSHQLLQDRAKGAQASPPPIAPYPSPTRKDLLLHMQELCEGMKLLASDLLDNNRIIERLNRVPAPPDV
From the text: (§1) Table S4. Profiling of two compounds at two concentrations against 320 wild-type protein kinases; singlicate measurement; Residual activities (% of control).

[2] = biological target: T2, 320 wild-type protein kinases (Homo sapiens, UniProt P36888); settings: singlicate
T2 sequence (P36888 27-993): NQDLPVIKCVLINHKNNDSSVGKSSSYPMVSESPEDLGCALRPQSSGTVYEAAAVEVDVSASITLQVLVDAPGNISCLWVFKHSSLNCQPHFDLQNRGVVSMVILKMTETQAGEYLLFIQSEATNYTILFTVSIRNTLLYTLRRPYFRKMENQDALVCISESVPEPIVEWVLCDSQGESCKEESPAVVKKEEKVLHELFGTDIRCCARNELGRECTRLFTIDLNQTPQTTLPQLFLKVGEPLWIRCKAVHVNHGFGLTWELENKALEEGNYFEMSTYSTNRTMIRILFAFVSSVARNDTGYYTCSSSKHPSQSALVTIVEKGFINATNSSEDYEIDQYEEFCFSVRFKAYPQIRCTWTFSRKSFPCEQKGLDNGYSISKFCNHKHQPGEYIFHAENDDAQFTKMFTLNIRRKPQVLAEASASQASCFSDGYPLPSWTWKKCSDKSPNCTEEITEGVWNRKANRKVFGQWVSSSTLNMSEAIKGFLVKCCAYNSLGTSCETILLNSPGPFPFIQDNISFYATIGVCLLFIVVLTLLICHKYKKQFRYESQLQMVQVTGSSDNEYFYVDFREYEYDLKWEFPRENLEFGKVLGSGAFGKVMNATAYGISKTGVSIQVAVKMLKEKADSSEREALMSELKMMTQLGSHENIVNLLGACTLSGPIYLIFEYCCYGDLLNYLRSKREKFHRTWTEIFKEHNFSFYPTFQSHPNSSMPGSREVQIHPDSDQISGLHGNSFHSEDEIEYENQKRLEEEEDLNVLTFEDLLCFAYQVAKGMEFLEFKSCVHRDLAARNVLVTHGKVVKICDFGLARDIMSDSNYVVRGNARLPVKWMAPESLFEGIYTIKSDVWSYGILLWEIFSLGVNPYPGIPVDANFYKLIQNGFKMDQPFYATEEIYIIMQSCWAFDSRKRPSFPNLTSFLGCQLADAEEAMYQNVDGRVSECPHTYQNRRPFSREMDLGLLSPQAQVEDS
From the text: as §1

[3] = biological target: 320 wild-type protein kinases (Homo sapiens, UniProt Q9P289); settings: singlicate
From the text: as §1

[4] = biological target: 320 wild-type protein kinases (Homo sapiens, UniProt Q9H422); settings: singlicate
From the text: as §1

[5] = biological target: 320 wild-type protein kinases (Homo sapiens, UniProt Q9BWU1); settings: CDK19/CycC, singlicate
From the text: as §1

[6] = biological target: 320 wild-type protein kinases (Homo sapiens, UniProt Q96RG2); settings: PASK, singlicate
From the text: as §1

[7] = biological target: 320 wild-type protein kinases (Homo sapiens, UniProt Q9Y6M4); settings: singlicate
From the text: as §1

[8] = biological target: T3, 320 wild-type protein kinases (Homo sapiens, UniProt Q8WTQ7); settings: singlicate
T3 sequence (Q8WTQ7 1-553): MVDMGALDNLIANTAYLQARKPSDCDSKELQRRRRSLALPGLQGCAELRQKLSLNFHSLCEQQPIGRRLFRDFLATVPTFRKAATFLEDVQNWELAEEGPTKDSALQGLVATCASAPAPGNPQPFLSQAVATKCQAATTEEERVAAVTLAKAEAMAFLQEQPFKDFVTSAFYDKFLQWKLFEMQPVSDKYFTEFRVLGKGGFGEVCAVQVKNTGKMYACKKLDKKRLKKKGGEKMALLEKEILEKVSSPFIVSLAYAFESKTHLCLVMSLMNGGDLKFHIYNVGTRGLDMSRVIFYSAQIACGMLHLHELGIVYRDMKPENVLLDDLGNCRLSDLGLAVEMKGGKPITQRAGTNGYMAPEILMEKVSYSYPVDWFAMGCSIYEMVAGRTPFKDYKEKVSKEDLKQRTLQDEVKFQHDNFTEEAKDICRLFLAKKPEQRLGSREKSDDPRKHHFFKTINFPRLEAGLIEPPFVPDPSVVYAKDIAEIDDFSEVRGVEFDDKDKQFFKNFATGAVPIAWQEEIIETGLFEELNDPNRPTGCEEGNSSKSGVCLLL
From the text: as §1

Sequence of 320 wild-type protein kinases (Homo sapiens, UniProt Q9P289) (Q9P289 whole entry): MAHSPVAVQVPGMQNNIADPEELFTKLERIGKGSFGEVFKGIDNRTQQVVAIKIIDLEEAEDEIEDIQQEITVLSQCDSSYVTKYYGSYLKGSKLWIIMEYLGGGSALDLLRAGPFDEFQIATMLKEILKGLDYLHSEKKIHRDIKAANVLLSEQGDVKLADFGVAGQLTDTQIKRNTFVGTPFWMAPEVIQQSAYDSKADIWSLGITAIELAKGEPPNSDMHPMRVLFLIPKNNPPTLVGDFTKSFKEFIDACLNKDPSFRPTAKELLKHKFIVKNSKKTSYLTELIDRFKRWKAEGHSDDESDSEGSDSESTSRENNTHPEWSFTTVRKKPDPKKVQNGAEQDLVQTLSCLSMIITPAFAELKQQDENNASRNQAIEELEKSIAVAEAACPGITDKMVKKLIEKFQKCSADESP
Sequence of 320 wild-type protein kinases (Homo sapiens, UniProt Q9H422) (Q9H422 whole entry): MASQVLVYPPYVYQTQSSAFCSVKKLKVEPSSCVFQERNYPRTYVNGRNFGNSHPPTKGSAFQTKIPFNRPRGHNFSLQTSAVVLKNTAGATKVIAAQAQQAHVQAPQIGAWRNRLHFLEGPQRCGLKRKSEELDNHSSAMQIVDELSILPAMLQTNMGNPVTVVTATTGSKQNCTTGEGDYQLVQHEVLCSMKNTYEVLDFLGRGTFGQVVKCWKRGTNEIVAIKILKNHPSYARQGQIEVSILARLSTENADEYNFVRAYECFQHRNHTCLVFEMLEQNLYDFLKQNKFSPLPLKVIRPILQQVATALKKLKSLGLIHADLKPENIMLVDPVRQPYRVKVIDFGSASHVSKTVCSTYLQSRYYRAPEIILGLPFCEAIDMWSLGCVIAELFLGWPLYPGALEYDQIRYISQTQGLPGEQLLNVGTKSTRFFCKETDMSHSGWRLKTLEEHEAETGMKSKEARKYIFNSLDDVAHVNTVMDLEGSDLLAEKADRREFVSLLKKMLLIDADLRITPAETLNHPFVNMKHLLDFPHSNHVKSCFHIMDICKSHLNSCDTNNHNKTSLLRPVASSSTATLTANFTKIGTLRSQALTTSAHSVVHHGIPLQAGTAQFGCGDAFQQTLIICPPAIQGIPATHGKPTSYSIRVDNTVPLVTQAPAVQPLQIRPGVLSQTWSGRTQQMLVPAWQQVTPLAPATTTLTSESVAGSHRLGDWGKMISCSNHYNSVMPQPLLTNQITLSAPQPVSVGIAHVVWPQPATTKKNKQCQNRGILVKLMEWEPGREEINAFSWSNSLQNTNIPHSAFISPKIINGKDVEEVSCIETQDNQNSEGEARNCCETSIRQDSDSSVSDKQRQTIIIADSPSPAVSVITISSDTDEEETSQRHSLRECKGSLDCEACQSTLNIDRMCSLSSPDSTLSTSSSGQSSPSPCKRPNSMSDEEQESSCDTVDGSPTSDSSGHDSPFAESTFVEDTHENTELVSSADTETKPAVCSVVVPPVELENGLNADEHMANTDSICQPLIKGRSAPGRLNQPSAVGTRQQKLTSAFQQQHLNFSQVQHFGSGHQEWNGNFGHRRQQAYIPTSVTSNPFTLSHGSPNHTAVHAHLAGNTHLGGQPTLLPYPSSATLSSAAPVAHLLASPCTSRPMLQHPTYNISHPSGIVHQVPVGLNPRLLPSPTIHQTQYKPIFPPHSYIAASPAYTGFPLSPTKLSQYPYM
Sequence of 320 wild-type protein kinases (Homo sapiens, UniProt Q9BWU1) (Q9BWU1 whole entry): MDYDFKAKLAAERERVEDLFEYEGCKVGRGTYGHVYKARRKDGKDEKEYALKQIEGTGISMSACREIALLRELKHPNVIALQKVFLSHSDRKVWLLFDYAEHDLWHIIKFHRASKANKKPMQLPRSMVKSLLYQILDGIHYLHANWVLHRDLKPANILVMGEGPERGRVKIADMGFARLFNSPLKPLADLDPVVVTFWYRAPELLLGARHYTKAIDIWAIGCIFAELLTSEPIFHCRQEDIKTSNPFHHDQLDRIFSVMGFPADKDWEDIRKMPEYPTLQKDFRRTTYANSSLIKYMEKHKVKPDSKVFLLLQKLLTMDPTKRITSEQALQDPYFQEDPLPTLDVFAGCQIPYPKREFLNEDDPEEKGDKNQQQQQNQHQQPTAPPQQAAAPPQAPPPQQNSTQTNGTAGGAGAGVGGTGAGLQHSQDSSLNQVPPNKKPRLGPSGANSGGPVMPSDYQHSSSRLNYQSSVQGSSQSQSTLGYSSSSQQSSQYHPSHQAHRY
Sequence of 320 wild-type protein kinases (Homo sapiens, UniProt Q9Y6M4) (Q9Y6M4 whole entry): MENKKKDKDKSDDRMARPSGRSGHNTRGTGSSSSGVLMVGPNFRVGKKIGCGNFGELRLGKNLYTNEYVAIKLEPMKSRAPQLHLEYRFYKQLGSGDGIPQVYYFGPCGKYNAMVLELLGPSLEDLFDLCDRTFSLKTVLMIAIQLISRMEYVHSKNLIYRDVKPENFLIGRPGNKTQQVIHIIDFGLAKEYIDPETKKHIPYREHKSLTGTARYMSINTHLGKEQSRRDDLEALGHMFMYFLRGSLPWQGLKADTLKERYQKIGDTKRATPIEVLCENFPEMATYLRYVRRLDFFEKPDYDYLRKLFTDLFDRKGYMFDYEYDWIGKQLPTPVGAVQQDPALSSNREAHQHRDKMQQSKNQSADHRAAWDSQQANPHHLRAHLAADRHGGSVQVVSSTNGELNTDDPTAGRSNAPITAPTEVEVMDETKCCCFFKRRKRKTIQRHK
Sequence of 320 wild-type protein kinases (Homo sapiens, UniProt Q96RG2) (Q96RG2 whole entry): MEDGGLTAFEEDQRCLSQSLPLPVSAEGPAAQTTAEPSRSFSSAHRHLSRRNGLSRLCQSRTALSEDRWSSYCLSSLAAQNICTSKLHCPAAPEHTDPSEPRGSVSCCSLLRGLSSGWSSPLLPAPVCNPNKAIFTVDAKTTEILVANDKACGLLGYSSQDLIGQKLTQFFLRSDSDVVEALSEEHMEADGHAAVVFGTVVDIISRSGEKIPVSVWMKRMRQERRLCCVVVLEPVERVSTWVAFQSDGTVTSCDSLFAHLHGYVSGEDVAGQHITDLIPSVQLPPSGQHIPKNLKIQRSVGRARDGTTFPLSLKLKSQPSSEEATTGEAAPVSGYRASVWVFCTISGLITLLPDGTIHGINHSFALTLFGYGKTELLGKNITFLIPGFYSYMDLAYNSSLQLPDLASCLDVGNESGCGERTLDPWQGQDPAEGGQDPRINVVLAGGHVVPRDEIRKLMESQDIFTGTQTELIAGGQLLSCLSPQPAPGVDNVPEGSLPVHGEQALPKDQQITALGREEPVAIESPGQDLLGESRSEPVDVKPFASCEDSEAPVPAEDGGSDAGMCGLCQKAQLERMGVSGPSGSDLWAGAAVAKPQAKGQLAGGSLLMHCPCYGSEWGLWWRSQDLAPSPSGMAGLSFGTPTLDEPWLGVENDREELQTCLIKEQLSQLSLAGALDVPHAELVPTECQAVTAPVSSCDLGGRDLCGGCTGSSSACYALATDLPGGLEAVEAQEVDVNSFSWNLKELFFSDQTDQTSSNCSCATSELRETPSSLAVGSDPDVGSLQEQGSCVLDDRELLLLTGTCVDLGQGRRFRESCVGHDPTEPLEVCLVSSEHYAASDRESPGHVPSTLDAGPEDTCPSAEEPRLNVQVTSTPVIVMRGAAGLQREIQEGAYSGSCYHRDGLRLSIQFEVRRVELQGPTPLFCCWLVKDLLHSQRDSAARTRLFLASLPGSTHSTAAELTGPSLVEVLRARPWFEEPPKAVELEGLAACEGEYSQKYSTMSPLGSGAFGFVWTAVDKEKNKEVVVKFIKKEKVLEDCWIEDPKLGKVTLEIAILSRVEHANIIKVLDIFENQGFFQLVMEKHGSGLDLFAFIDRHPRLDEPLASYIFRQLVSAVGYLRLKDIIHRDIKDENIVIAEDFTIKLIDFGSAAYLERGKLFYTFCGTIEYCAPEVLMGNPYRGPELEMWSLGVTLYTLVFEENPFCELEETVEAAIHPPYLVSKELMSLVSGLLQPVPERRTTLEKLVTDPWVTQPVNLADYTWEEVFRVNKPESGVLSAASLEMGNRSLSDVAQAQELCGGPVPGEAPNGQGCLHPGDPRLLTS

SMILES	Residual activity ([1]; 1.0E-06 M)	Residual activity ([1]; 1.0E-07 M)	Residual activity ([2]; FLT3, 1.0E-06 M)	Residual activity ([2]; FLT3, 1.0E-07 M)	Residual activity ([3]; MST4, 1.0E-06 M)	Residual activity ([3]; MST4, 1.0E-07 M)	Residual activity ([4]; HIPK3, 1.0E-06 M)	Residual activity ([4]; HIPK3, 1.0E-07 M)	Residual activity ([5]; 1.0E-06 M)	Residual activity ([5]; 1.0E-07 M)	Residual activity ([6]; 1.0E-06 M)	Residual activity ([6]; 1.0E-07 M)	Residual activity ([7]; CK1-gamma3, 1.0E-06 M)	Residual activity ([7]; CK1-gamma3, 1.0E-07 M)	Residual activity ([8]; GRK7, 1.0E-06 M)	Residual activity ([8]; GRK7, 1.0E-07 M)
C#Cc1cc(Nc2ncnc3cc(I)ccc23)ccc1Cl [Compound 41]	94 % of control	108 % of control	94 % of control	95 % of control	89 % of control	101 % of control	103 % of control	98 % of control	93 % of control	91 % of control	101 % of control	102 % of control	118 % of control	121 % of control	116 % of control	124 % of control
C#Cc1cc(Nc2ncnc3cc(OC)c(OC)cc23)ccc1Cl [Compound 45]	101 % of control	108 % of control	56 % of control	88 % of control	97 % of control	92 % of control	97 % of control	102 % of control	97 % of control	104 % of control	93 % of control	98 % of control	123 % of control	116 % of control	121 % of control	115 % of control
